Assay results: PMC11892739, “Site-specific molecular glues for the 14-3-3/Tau pS214 protein–protein interaction via reversible covalent imine tethering” (RSC Medicinal Chemistry, 2025)
“Also recorded” adds a separate entry of the source.

system: 14-3-3γ/Tau pS214 interaction; assay: Fluorescence anisotropy 14-3-3γ titration with compound and monovalent Tau pS214 peptide; assay type: binding; conditions: SF250μM with 14-3-3γ, 250 μM compound
Experimental: FA assays in which 14-3-3γ was titrated to a constant concentration of compound (250 μM) in the presence of the distinct monovalent Tau peptide (10 nM) were performed.
The determined stabilization factors are concentration-dependent (here 250 μM of compound) and might differ based on assay design. […] The app. α-factors of these compounds for both 14-3-3/Tau complexes were determined by 14-3-3γ titrations in the presence of varied concentrations of the particular compound (Fig. 5d and e). Both compounds reached saturation for both 14-3-3γ/Tau complexes enabling accurate determination of the α-factor. The app. α-factors of aldehydes 1 and 18 were plotted for both 14-3-3γ/Tau complexes to investigate phospho-binding site selective cooperativity (Fig. 5f and h). To do so, the stabilization factors at a given compound concentration were plotted against the compound concentration, leading to the determination of the app. α-factors. […]
chromatography (HisTrap high performance cartridges, Cytiva). Typically two 5 mL columns were used for a 2 L culture in which the lysate was loaded on the column, washed with 10 CV wash buffer (50 mM Hepes, pH 8.0, 300 mM NaCl, 25 mM imidazole, 2 mM βME), and eluted with several fractions (2-4 CV) of elution buffer (50 mM Hepes, pH 8.0, 300 mM NaCl, 250 mM imidazole, 2 mM βME). Fractions containing the 14-3-3 protein were combined and dialyzed into 25 mM HEPES pH 8.0, 200 mM NaCl, 10 mM MgCl2, 2 mM βME, followed by dialysis into 25 mM HEPES, 100 mM NaCl, 10 mM MgCl2, 500 μM TCEP (adjusted to pH 8.0). Dialyzed protein was concentrated to ∼40 mg/mL, analyzed by Q -Tof LC/MS, and aliquots were flash -frozen for storage at −80 °C. […]
0.1% (v/v) Tween20, 0.1% (w/v) BSA). Dilution series were made in polystyrene low -volume 384 -well plates (Corning #4514, Black Round Bottom). Measurements were performed directly after plate preparation, using a Tecan SPARK plate reader at room temperature ( λex: 485±20 nm; λem: 535±25 nm; mirror: automatic; flashes: 30; settle time: 1 ms; gain: optimal; Z -position: calculated from well). Wells containing only fluorescein labelled peptide were used to set as G -factor calibrated from these wells. All data were analyzed using GraphPad Prism (10.0.1) and fitted with a four -parameter logistic model (4PL) to determine binding affinities (dissociation constant, KD). All data shown is background corrected for the signal without 14 -3-3ζ and the mean and standard deviation of technical duplicate is plotted, assay performed in a scientific duplicate for hit compounds.
Fluorescence Anisotropy – 14-3-3 titrations in the presence of compound To characterize the affinity of the Tau peptides for 14-3-3 in the presence of compound, 14-3-3ζ or γ was titrated in a 2-fold dilution series starting at 400 (for the 14-3-3ζ titrations to Tau pS2) or 800 (for the 14-3-3γ titrations to Tau pS214 or pS324) µM. 14-3-3 was added to 10 nM of fluorescein-labeled peptide (Tau pS2, Tau pS214 or Tau pS324) in the presence of 250 µM compound (1% DMSO). The assays were performed in a similar way as described above. Data shown is the average and standard deviation of a technical duplicate, top plateau corrected where needed, assay performed in a scientific duplicate. […]
The peptide screen was performed in a similar way as the 14-3-3ζ titration in the precence of compound.
14-3-3ζ was titrated in a 2-fold dilution series (starting at 400 µM 14-3-3ζ) to 100 nM of fluorescein-labeled peptides and 250 µM compound 18 (1% DMSO) in FA buffer (10 mM HEPES pH 7.4, 150 mM […]
Data shown is the average of a scientific triplicate. […]
DSF was performed using 40 µl samples containing 2.5 µM 14 -3-3ζ, 25 µM Tau peptide (Tau pS2, Tau pS214 or Tau pS324), […] (1% DMSO) and 5x ProteoOrange (Lumiprobe, 5000x stock in DMSO) in 10 mM HEPES, 150 mM NaCl, 50 µM TCEP (pH 7.4). The samples were heated from 35 °C to 79°C at a rate of 0.3 °C per 15 s in a C FX96 Touch Real-Time PCR Detection System (Bio -Rad). Fluorescence […]

Structure (SMILES) | phospho-binding site preference Tau pS214 versus Tau pS324 (in words)
O=Cc1ccc(-n2ccnc2-c2ccccc2)cc1Br [Compound 1] | did not show a difference in stabilization
Cc1cccc(-c2nccn2-c2ccc(C=O)c(Br)c2)c1 [Compound 6] | no significant preference
Cc1ccc(-c2nccn2-c2ccc(C=O)c(Br)c2)cc1 [Compound 11] | significantly greater extent
O=Cc1ccc(-n2ccnc2-c2ccc(F)cc2)cc1Br [Compound 13] | no preference for Tau pS214
O=Cc1ccc(-n2ccnc2-c2ccc(Cl)cc2)cc1Br [Compound 14] | significantly greater extent; also recorded: preference for Tau pS214
O=Cc1ccc(-n2ccnc2-c2ccc(I)cc2)cc1Br [Compound 15] | significantly greater extent; also recorded: preference for Tau pS214
CCc1ccc(-c2nccn2-c2ccc(C=O)c(Br)c2)cc1 [Compound 18] | significantly greater extent; also recorded: highest stabilization selectivity for the 14-3-3γ/Tau pS214 complex
N#Cc1ccc(-c2nccn2-c2ccc(C=O)c(Br)c2)cc1 [Compound 22] | preference for Tau pS214
